pIC50: −log10 of the molar value. Counter-ions that a name gives are not always drawn. Like-named read-outs stand apart in the source and are kept apart here.
Columns and labels:
HPK1 kinase = target: T1, HPK1 kinase (Homo sapiens, UniProt Q92918); test: HPK1 kinase assay (1 mM ATP); assay type: biochemical
T1 construct: purchased Carna 07-410
T1 sequence (Q92918 1-346 limits assumed): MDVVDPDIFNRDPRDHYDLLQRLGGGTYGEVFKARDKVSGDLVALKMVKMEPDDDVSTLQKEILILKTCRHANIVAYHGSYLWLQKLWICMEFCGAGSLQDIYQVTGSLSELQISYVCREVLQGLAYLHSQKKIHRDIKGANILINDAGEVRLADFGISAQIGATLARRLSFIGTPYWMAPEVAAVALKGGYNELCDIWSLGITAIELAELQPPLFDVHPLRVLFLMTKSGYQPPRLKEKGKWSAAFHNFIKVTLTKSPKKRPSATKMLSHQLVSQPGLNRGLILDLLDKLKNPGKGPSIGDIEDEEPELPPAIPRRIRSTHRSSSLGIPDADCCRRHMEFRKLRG
Description: Test example 5: HPK1 kinase assay (1 mM ATP)
The kinase HPK1 (Carna, Cat.No 07-410) was prepared into 2× kinase solution using 1× kinase buffer. The substrate Fluorescein-PKC (Invitrogen, Cat. No. PV3506) and ATP (working concentration: 1 mM) (Sigma, Cat. No. 2383-5G) were prepared into 2× substrate solution using 1×kinase buffer. The detection reagent was diluted to 2-fold the final concentration using an antibody diluent. 100 nL of compounds at different concentrations and 5 µL of kinase solution were added to each well of a 384-well plate, and the mixture was incubated at room temperature for 10 minutes. After the incubation was completed, 5 µL of substrate solution was added to each well, and the resulting mixture was reacted at room temperature for 90 minutes. After the reaction was completed, 10 µL of detection reagent was added to each well to terminate the reaction, and the mixture was incubated at room temperature for 60 minutes. Fluorescence readings were detected using an Envision instrument with excitation at 320 nm and emission at 520 nm and 495 nm. IC50 value was calculated using XLFit excel add-in version 5.4.0.8 software. The calculation formula of the inhibition rate was shown in formula 5-1, wherein max is the Ratio of the DMSO control, min is the Ratio of the negative control without enzyme, and sample is the Ratio of the compound. Ratio = RFU520nm /RFU495nm [formula] Inhibition% = (max−sample)/(max−min) × 100% [formula] Table 5-1 Inhibitory activity of test compounds against HPK1 kinase

[1] = tested on: IL-2 secretion by T cells; test: IL-2 detection assay in cells (ELISA, pan-T cells isolated from PBMCs); assay type: cell-based; conditions: IL-2, CD3 antibody-coated plate, 24 hours; for Maximum activation fold: maximum activation rate/control group
Description: 9. IL-2 detection assay in cells
Activating effect of compounds on IL-2 secretion by T cells was evaluated using the ELISA method. Frozen PBMCs were thawed, and pan-T cells were isolated and purified using a T cell sorting kit (Stemcell, 17951). The cells were resuspended in 1640 complete medium and incubated in a 37°C&5%CO2 incubator overnight. A 96-well plate coated with an anti-human CD3 antibody (Thermo, 16-0037-38) at a final concentration of 5 µg/mL was incubated at 37°C for 2 h. The overnight-cultured cells were collected by centrifugation, the supernatant was discarded, and the cells were resuspended in 1640 complete medium, and seeded in the CD3 antibody-coated 96-well plate at a density of 10^5cells/well. The compounds at different concentrations were added, and the mixture was incubated in a 37°C&5%CO2 incubator for 24 hours. After the incubation was completed, the resulting mixture was centrifuged at 1000 rpm for 1 minute to collect the supernatant, and IL-2 was detected according to the ELISA instructions. DMSO without compounds was used as the control group to calculate the activation rate of the compounds, and prism was used to fit the activation curve. Maximum activation fold = maximum activation rate/control group. Table 9-1 Results of IL-2 activation by test compounds

[2] = Pharmacokinetic test in rats; assay type: in vivo, SD rats; conditions: rat, plasma
Description: Test example 7: Pharmacokinetic test in rats
Experimental animals: Male SD rats, 180-200 g, purchased from Chengdu Dossy Experimental Animals Co., Ltd. with the laboratory animal production license number of SCXK (CHUAN) 2020-030.
Experimental design: on the day of the experiment, the SD rats were randomly grouped according to their body weights. The animals were fasted but with water available overnight before the administration, and fed 4 h after the administration.
Vehicle for intragastric administration: 5% Solutol+5% TPGS+30% PEG400+60% (20% SBE-β-CD)
Blood was taken from the orbits of the […] at specified time points, and placed in an EDTAK2 centrifuge tube. Centrifugation was performed at 5000 rpm for 10 min, and the plasma was collected.
Blood sampling time points for the intravenous administration group were: 0, 5 min, 15 min, 30 min, 1 h, 2 h, 4 h, 6 h, 8 h and 24 h; blood sampling time points for the intragastric administration group were: 0, 5 min, 15 min, 30 min, 1 h, 2 h, 4 h, 6 h, 8 h and 24 h. Before analysis and detection, all the samples were stored at - 60°C or lower. The samples were analysed quantitatively by LC-MS/MS. Table 7-1 PK data of test compound drug in rats

[3] = Pharmacokinetic test in mice; assay type: in vivo, ICR mice; conditions: mouse, plasma
Description: Test example 6: Pharmacokinetic test in mice
Experimental objective: In this experiment, a single dose of test substances was administered to ICR mice intravenously and intragastrically, the concentrations of the test compounds in plasma of mice were measured, and the pharmacokinetic characteristics and bioavailability of the test compounds in mice were evaluated.
Experimental animals: Male ICR mice, 20-35 g, purchased from Chengdu Dossy Experimental Animals Co., Ltd. (SCXK (CHUAN) 2020-030).
Experimental method: On the day of the experiment, the ICR mice were randomly grouped according to their body weights. The animals were fasted but with water available overnight before the administration, and fed 4 h after the administration.
Sampling: Blood was taken from the orbits of the mice at specified time points, and placed in an EDTAK2 centrifuge tube. Centrifugation was performed at 5000 rpm at 4°C for 10 min, and the plasma was collected.
Time points for plasma collection in G1 and G1-2 groups: 0, 5 min, 15 min, 30 min, 1 h, 2 h, 4 h, 7 h, and 24 h.
Time points for plasma collection in G2 and G2-2 groups: 0, 5 min, 15 min, 30 min, 1 h, 2 h, 4 h, 7 h, and 24 h.
Before analysis and detection, all the samples were stored at -60°C or lower. The samples were analysed quantitatively by LC-MS/MS. Table 6-1 PK data of test compound drug in mice

HPK1 protein = target: T2, HPK1 protein (Homo sapiens, UniProt Q92918); test: Detection of HPK1 protein expression level in Jurkat cells (24 h); assay type: cell-based; conditions: 24 hours incubation
T2 construct: host or cells: Jurkat cells
T2 sequence (Q92918 whole entry): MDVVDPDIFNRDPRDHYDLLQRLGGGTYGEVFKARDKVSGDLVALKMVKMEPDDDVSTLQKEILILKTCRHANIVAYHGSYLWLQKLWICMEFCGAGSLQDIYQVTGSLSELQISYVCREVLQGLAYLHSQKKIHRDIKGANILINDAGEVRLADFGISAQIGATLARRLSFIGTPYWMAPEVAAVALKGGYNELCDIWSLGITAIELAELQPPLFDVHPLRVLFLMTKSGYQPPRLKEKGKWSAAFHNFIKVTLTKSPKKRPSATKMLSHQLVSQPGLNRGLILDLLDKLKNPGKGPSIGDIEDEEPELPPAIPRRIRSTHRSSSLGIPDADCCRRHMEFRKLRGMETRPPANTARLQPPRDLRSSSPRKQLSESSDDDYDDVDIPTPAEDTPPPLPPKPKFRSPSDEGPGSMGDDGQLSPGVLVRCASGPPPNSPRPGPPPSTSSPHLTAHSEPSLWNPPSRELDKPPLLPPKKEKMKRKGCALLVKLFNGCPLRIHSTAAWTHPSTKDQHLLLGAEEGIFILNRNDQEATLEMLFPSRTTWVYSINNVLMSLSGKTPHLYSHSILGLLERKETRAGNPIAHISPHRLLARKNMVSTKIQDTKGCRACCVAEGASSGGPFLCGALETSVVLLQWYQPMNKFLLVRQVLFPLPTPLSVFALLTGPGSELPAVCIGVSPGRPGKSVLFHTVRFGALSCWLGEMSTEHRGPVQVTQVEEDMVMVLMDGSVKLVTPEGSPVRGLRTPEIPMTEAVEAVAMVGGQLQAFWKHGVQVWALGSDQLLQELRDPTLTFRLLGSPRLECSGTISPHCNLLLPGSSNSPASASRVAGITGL
Description: Test example 4: Detection of HPK1 protein expression level in Jurkat cells (24 h)
Jurkat cells from ATCC were placed in a RPMI-1640 complete medium (supplemented with 10% FBS and 1% penicillin-streptomycin solution) and cultured at 37°C and 5% CO2. The cells in the logarithmic growth phase were collected, the cell density was adjusted to 5 × 10^5 cells/well with the culture medium, and the cells were added to a 6-well cell culture plate at a volume of 1 mL/well. The compound to be tested was prepared to 2-fold the final concentration, 1 mL of the compounds at different concentrations were added to administration wells, a medium containing 0.2% DMSO was added to control wells, and the plate was incubated at 37°C and 5% CO2 for 24 hours. The cells were collected into a 1.5 mL centrifuge tube, 30 µL of RIPA lysis buffer (containing 1X protease inhibitor cocktail) was added, and the cells were lysed on ice for 15 minutes and centrifuged at 12000 rpm/min at 4°C for 10 minutes. The supernatant was collected and the protein content was determined using the BCA method. The protein sample to be tested was diluted to 0.2 mg/mL, HPK1 was detected using a fully automated protein expression quantitative analyser (ProteinSimple), and the internal reference protein was β-actin (all antibodies were from CST). The software (Compass for SW) of the fully automated protein expression quantitative analyser was used to process the raw data and calculate the peak area after internal reference normalisation and the HPK1 degradation rate relative to the control group. The HPK1 degradation rate was calculated according to formula 4-1, where Aadministration well is the relative peak area of the administration group after internal reference normalisation, and Acontrol well is the relative peak area of the vehicle control group after internal reference normalisation. DC50 values were calculated using a four-parameter non-linear fitting model in Graphpad 8.3.0 software. HPK1_degradation % = 100−(Aadministration well/Acontrol well×100%) [formula] Table 4-1 Degradation activity of test compounds against HPK1 protein in Jurkat cells (24 h)

[4] = ATP working concentration: 1 mM

Compound	AUC ([3]; po, i. g., 10 mg/kg) [µg·h/mL]	Cmax ([3]; po, i. g., 10 mg/kg) [µg/mL]	half-life ([3]; po, i. g., 10 mg/kg) [h]	pIC50 (HPK1 kinase; [4])	DC50 (HPK1 protein) [µM]	pIC50 (HPK1 kinase)	further results
O=C1CCC(c2ccc(N3CCN(CC4CCN(c5ccc(Nc6ccc(-c7cnc8cc(F)ccn78)c7c6C(=O)NC7)nc5)CC4)CC3)cc2F)C(=O)N1 (single isomer, unassigned) [Compound 1-1]							pIC50 (HPK1 kinase; ATP working concentration: 1 mM, read-out: IC50): > 7.30; Activation fold at 100 nM concentration [1]: >10
CN(C)Cc1nc(Nc2ccc(-c3cnc4cc(F)ccn34)c3c2C(=O)NC3)ccc1[C@@H]1CCOC1 [Control compound 1, reference compound]	0.248	0.0938	2.05				clearance ([2]; IV, 2.5 mg/kg): 14 L/h/kg; half-life ([2]; IV, 2.5 mg/kg): 0.986 h; AUC ([2]; po, i. g., 10 mg/kg): 0.0611 µg·h/mL; Cmax ([2]; po, i. g., 10 mg/kg): 0.0146 µg/mL; half-life ([2]; po, i. g., 10 mg/kg): 1.71 h; clearance ([3]; IV, 2.5 mg/kg): 10.1 L/h/kg; half-life ([3]; IV, 2.5 mg/kg): 0.89 h; Activation fold at 100 nM concentration [1]: <10; Maximum activation fold [1]: <10
O=C1CC[C@H](NC(=O)c2cc3c(cc2F)N2CCN(CC4CCN(c5ccc(Nc6ccc(-c7cnc8cc(F)ccn78)c7c6C(=O)NC7)nc5)CC4)C[C@@H]2CC3)C(=O)N1 [Trifluoroacetic acid salt of compound 7]				> 7.30	< 0.02		Activation fold at 100 nM concentration [1]: >10; Maximum activation fold [1]: >10
O=C1CC[C@H](NC(=O)c2cc3c(cc2F)N2CCN(CC4CCN(c5ccc(Nc6ccc(-c7cnc8cc(F)ccn78)c7c6C(=O)NC7)nc5)CC4)C[C@H]2CC3)C(=O)N1 [Trifluoroacetic acid salt of compound 8]	18.3	1.46	4.38	> 7.30	< 0.02		
O=C1CCN(c2cc3c(cc2F)N2CCN(C4CCN(c5ccc(Nc6ccc(-c7cnc8cc(F)ccn78)c7c6C(=O)NC7)nc5)CC4)C[C@@H]2CC3)C(=O)N1 [Trifluoroacetic acid salt of compound 13]					< 0.02	> 7.30	
O=C1CCN(c2cc3c(cc2F)N2CCN(C4CCN(c5ccc(Nc6ccc(-c7cnc8cc(F)ccn78)c7c6C(=O)NC7)nc5)CC4)C[C@H]2CC3)C(=O)N1 [Trifluoroacetic acid salt of compound 14]					< 0.02	> 7.30	
O=C1CCN(c2cc3c(cc2F)N2CCN(CC4CC5(CCN(c6ccc(Nc7ccc(-c8cnc9cc(F)ccn89)c8c7C(=O)NC8)nc6)CC5)C4)C[C@@H]2CC3)C(=O)N1 [Trifluoroacetic acid salt of compound 15]	23.6	1.62	7.64	> 7.30	< 0.02		
O=C1CCN(c2cc3c(cc2F)N2CCN(C4CC5(CCN(c6ccc(Nc7ccc(-c8cnc9cc(F)ccn89)c8c7C(=O)NC8)nc6)CC5)C4)C[C@@H]2CC3)C(=O)N1 [Trifluoroacetic acid salt of compound 20]	12.6	1.01	5.51		< 0.02	> 7.30	clearance ([2]; IV, 2.5 mg/kg): 0.804 L/h/kg; half-life ([2]; IV, 2.5 mg/kg): 4.78 h; AUC ([2]; po, i. g., 10 mg/kg): 5.31 µg·h/mL; Cmax ([2]; po, i. g., 10 mg/kg): 0.382 µg/mL; half-life ([2]; po, i. g., 10 mg/kg): 5.29 h
O=C1CC[C@H](NC(=O)c2cc3c(cc2F)N2CCN(CC4CC5(CCN(c6ccc(Nc7ccc(-c8cnc9cc(F)ccn89)c8c7C(=O)NC8)nc6)CC5)C4)C[C@@H]2CC3)C(=O)N1 [Trifluoroacetic acid salt of compound 34]				> 7.30	< 0.02		
O=C1CC[C@H](NC(=O)c2cc3c(cc2F)N2CCN(CC4CC5(CCN(c6ccc(Nc7ccc(-c8cnc9cc(F)ccn89)c8c7C(=O)NC8)nc6)CC5)C4)C[C@H]2CC3)C(=O)N1 [Trifluoroacetic acid salt of compound 36]				> 7.30	< 0.02		
O=C1CC[C@H](NC(=O)c2cc3c(cc2F)N2CCN(C4CC5(CCN(c6ccc(Nc7ccc(-c8cnc9cc(F)ccn89)c8c7C(=O)NC8)nc6)CC5)C4)C[C@H]2CC3)C(=O)N1 [Trifluoroacetic acid salt of compound 37]				> 7.30	< 0.02		
O=C1CC[C@H](NC(=O)c2cc3c(cc2F)N2CCN(C4CCN(c5ccc(Nc6ccc(-c7cnc8cc(F)ccn78)c7c6C(=O)NC7)nc5)CC4)C[C@H]2CC3)C(=O)N1 [Trifluoroacetic acid salt of compound 42]					< 0.02	> 7.30	
